Measurements from patent publication US20050245399A1, “Pyrazole derivatives as herbicidal compositions containing them” (ISHIHARA SANGYO KAISHA, LTD., priority 2004, published 2005).

Experiments:
Type in all cases: in vivo
[1] = system: barnyardgrass (Echinochloa crus-galli L.): ECHCG; assay: Test Example 1 pre-emergence herbicidal activity, ECHCG; conditions: Rate 63 g a.i./ha, visually observed 20th to 23rd day after application
Method in brief: (§1)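 Upland soil pot test. Formulated compound (wettable powder or emulsifiable concentrate) in water, 500 L/ha, sprayed one day after sowing before emergence; % control rated by eye on day 20–23.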

[2] = system: crabgrass (Digitaria sanguinalis L.): DIGSA; assay: Test Example 1 pre-emergence herbicidal activity, DIGSA; conditions: Rate 63 g a.i./ha, visually observed 20th to 23rd day after application
Method in brief: as §1

[3] = system: green foxtail (Setaria viridis L.): SETVI; assay: Test Example 1 pre-emergence herbicidal activity, SETVI; conditions: Rate 63 g a.i./ha, visually observed 20th to 23rd day after application
Method in brief: as §1

[4] = system: prickly sida (Sida spinosa L.): SEDSP; assay: Test Example 1 pre-emergence herbicidal activity, SIDSP; conditions: Rate 63 g a.i./ha, visually observed 20th to 23rd day after application
Method in brief: as §1

[5] = system: common cocklebur (Xanthium strumarium L.): XANST; assay: Test Example 1 pre-emergence herbicidal activity, XANST; conditions: Rate 63 g a.i./ha, visually observed 20th to 23rd day after application
Source text: Upland field soil was put into a 1/170,000 ha pot, and seeds of various plants {1. barnyardgrass (Echinochloa crus-galli L.): ECHCG, 2. crabgrass (Digitaria sanguinalis L.): DIGSA, 3. green foxtail (Setaria viridis L.): SETVI, 4. redroot pigweed (Amaranthus retroflexus L.): AMARE, 5. prickly sida (Sida spinosa L.): SEDSP, 6. velvetleaf (Abutilon theophrasti): ABUTH, 7. common cocklebur (Xanthium strumarium L.): XANST, 8. rice (Oryza sativa L.): ORYSA, 9. wheat (Triticum aestivum L.): TRZAX, 10. corn (Zea mays L.): ZEAMX, 11. soybean (Glycine max Merr.): GLXMA} were sown. Then, one day after the sowing, a wettable powder or emulsifiable concentrate having the compound of the present invention formulated in accordance with a usual formulation method, was weighed so that the active ingredient would be a predetermined amount and diluted with water in an amount of 500 L/ha. The herbicide adjusted was applied by a small size sprayer for preemergence treatment. On the 20th to 23rd day after the application of the herbicide, the growth of the respective plants was visually observed, and the herbicidal effects were evaluated by growth controlling degrees (%) ranging from 0 (equivalent to the untreated control) to 100 (complete kill), whereby the results shown in Table 4, were obtained. Compound Nos. in Table 4 correspond to Compound Nos. in Table 1 and 2 given hereinbefore.

[6] = system: rice (Oryza sativa L.): ORYSA; assay: Test Example 1 pre-emergence herbicidal activity, ORYSA; conditions: Rate 63 g a.i./ha, visually observed 20th to 23rd day after application
Method in brief: as §1

[7] = system: corn (Zea mays L.): ZEAMX; assay: Test Example 1 pre-emergence herbicidal activity, ZEAMX; conditions: Rate 63 g a.i./ha, visually observed 20th to 23rd day after application
Method in brief: as §1

[8] = system: barnyardgrass (Echinochloa crus-galli L.), ECHCG; assay: Test Example 2 post-emergence (foliage treatment) herbicidal activity, ECHCG; conditions: 63 g a.i./ha
Method in brief: (§2)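 Leaf stages at treatment differed per species: 1.1-2.1 for ECHCG, 1.0-2.0 for DIGSA, 0.1-1.5 for AMARE and 1.0-2 for ORYSA. Plants grew in pots of upland soil and were sprayed with wettable powder or emulsifiable concentrate in water (500 L/ha) plus spreader at 0.1% (v/v). Visual % control followed on days 20-23.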

[9] = system: crabgrass (Digitaria sanguinalis L.), DIGSA; assay: Test Example 2 post-emergence (foliage treatment) herbicidal activity, DIGSA; conditions: 63 g a.i./ha
Method in brief: as §2

[10] = system: green foxtail (Setaria viridis L.), SETVI; assay: Test Example 2 post-emergence (foliage treatment) herbicidal activity, SETVI; conditions: 63 g a.i./ha
Method in brief: (§3)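 Foliar spray of formulated compound (500 L/ha dilution water, 0.1% v/v spreader) onto young potted plants at defined leaf stages. Scored 0-100% by visual inspection 20-23 d post-spray.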

[11] = system: redroot pigweed (Amaranthus retroflexus L.), AMARE; assay: Test Example 2 post-emergence (foliage treatment) herbicidal activity, AMARE; conditions: 63 g a.i./ha
Method in brief: as §2

[12] = system: prickly sida (Sida spinosa L.), SIDSP; assay: Test Example 2 post-emergence (foliage treatment) herbicidal activity, SIDSP; conditions: 63 g a.i./ha
Method in brief: as §3

[13] = system: velvetleaf (Abutilon theophrasti), ABUTH; assay: Test Example 2 post-emergence (foliage treatment) herbicidal activity, ABUTH; conditions: 63 g a.i./ha
Method in brief: as §3

[14] = system: corn (Zea mays L.), ZEAMX; assay: Test Example 2 post-emergence (foliage treatment) herbicidal activity, ZEAMX; conditions: 63 g a.i./ha
Method in brief: as §3

[15] = system: barnyardgrass (Echinochiloa oryzicola: ECHOR); assay: Test Example 3 water application herbicidal activity (paddy), ECHOR; conditions: 63 g a.i./ha, water application under submerged condition at 0.5 leaf stage, visually observed 14th day after application; 0 = untreated control, 100 = complete kill
Method in brief: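 Flooded paddy-soil pots in greenhouse; ECHOR and SCPJO sown, SAGPY tubers planted a day later, compound applied into 3–4 cm water at weeds' 0.5-leaf stage. Rice transplanted at 2-leaf stage, treated day 4 after transplanting. Visual growth control 0–100% at 14 days (weeds) and 21 days (rice) after application.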

SMILES	Pre-emergence Herbicidal Activity ECHCG (growth controlling degree) [1]	Pre-emergence Herbicidal Activity DIGSP (growth controlling degree) [2]	Pre-emergence Herbicidal Activity SETVI (growth controlling degree) [3]	Pre-emergence Herbicidal Activity SIDSP (growth controlling degree) [4]	Pre-emergence Herbicidal Activity XANST (growth controlling degree) [5]	Pre-emergence Herbicidal Activity ORYSA (growth controlling degree) [6]	Pre-emergence Herbicidal Activity ZEAMX (growth controlling degree) [7]	growth controlling degree, ECHCO [8]	growth controlling degree, DIGSP [9]	growth controlling degree, SETVI [10]	growth controlling degree, AMARE [11]	growth controlling degree, SIDSP [12]	growth controlling degree, ABUTH [13]	growth controlling degree, ZEAMX [14]	growth controlling degrees (%) ECHOR [15]
COc1c(Cl)cc(F)c(-c2nn(C)c(OC(F)F)c2Cl)c1N(C=O)CC(=O)c1ccc(Cl)cc1 [Compound 1-13]	80%	70%	90%	100%	50%	70%	40%	80%	70%	90%	100%	100%	100%	40%	95%
COc1c(Cl)cc(F)c(-c2nn(C)c(OC(F)F)c2Cl)c1N(C=O)C1CCCC1 [Compound 1-10]	90%	60%	100%	100%	100%	70%	40%	90%	60%	100%	100%	100%	100%	40%	100%
